Source: publication PMC8115037, “Paracoccus denitrificans: a genetically tractable model system for studying respiratory complex I” (Scientific Reports, 2021)
Like-named read-outs stand apart in the source and are kept apart here.

Columns and labels:
[1] = target: T1, complex I (NADH:ubiquinone oxidoreductase), Pd-CI (Paracoccus denitrificans, UniProt A1B487+A1B495+A1B497); test: NADH:DQ oxidoreductase assay, detergent-solubilized purified enzyme ([…] in proteoliposomes); assay type: biochemical
T1 construct: gene nuoD; intact purified complex I, His6-tag on C-terminus of Nqo5 (Pd-Nqo5^His6); with multisubunit complex (14 core Nqo subunits plus PdNUMM, PdNUYM, PdN7BM)
T1 sequence (A1B496 entry or part of it): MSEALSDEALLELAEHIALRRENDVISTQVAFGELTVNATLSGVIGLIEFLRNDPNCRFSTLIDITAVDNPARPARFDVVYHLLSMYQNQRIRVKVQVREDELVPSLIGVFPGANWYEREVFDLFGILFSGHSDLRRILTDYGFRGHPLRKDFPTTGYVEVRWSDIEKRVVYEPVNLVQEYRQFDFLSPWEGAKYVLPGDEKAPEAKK
T1 sequence (A1B495 whole entry): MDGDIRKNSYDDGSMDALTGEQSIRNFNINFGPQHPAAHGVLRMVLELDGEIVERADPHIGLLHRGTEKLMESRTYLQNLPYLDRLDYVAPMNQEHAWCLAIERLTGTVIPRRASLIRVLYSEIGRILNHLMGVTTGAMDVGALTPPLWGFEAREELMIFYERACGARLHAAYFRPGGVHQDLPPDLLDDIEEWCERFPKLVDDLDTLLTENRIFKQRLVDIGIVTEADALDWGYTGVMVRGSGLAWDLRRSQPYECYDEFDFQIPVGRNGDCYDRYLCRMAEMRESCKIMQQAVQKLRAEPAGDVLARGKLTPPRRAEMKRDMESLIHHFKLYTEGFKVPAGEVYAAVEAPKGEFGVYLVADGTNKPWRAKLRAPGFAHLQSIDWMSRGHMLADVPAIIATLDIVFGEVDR
T1 sequence (A1B487 whole entry): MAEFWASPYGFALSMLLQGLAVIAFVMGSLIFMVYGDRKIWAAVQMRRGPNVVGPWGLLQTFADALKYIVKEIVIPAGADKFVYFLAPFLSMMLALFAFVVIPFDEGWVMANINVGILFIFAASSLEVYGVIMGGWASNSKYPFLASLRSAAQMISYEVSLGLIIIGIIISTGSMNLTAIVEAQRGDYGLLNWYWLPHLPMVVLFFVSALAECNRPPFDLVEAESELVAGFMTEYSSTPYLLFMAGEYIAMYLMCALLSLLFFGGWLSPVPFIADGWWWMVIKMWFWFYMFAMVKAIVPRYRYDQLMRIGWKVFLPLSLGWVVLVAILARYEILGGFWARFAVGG
T1 sequence (A1B498 entry or part of it, further chain): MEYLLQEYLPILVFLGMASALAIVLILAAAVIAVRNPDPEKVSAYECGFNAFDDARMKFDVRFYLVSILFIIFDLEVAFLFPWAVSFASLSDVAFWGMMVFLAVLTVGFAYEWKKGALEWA
T1 sequence (A1B497 whole entry): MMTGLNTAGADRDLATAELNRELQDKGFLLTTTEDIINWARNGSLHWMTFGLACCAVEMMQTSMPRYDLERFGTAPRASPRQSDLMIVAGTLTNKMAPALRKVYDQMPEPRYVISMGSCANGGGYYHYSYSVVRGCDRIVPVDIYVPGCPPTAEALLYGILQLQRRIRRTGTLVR

[2] = target: T1, complex I (NADH:ubiquinone oxidoreductase), Pd-CI; test: as above; assay type: biochemical; remark: listed apart in the source

For `C/C=C(\C)[C@H](O)[C@H](C)/C=C(C)/C=C/C/C(C)=C/Cc1nc(OC)c(OC)c(O)c1C` [piericidin A], the IC50 [1] was 72 ± 7 nM.
`C=C(C)[C@H]1Cc2c(ccc3c2O[C@@H]2COc4cc(OC)c(OC)cc4[C@@H]2C3=O)O1` [rotenone] showed an IC50 [2] of 2230 ± 185 nM.
